Test [1] deals with CD99-transfected SAOS-2 and U-2 OS cells. The test can be described thus: Real-time proliferation (xCELLigence) of OS cells with forced CD99 expression. Format: cell-based, human. The conditions noted are these: dose-dependent. How it is done: U-2 OS and SAOS-2 cells were transfected with pcDNA3.1 expression vector carrying the human full-length CD99 transcript variant 1 cDNA using the X-tremeGene 9 DNA transfection reagent (Roche Diagnostics) according to the manufacturer's recommendations. The expression of CD99 was assessed after 48 h by immunoblotting.
OS cells express low levels of CD99 and the forced ectopic expression of CD99 reduces their growth. To test whether cladribine can rescue the reduced proliferation phenotype induced by overexpression of CD99, U-2 OS and SAOS-2 cells were transiently transfected with a mammalian expression vector containing cDNA encoding full length human CD99. As expected, CD99-forced expression suppressed cell proliferation compared with empty-vector transfected cells, which was rescued by the addition of cladribine in a dose-dependent manner (FIGS. 7C-D and FIG. 9).

Test [2] deals with U-2 OS cells. The test can be described thus: Cell cycle analysis by flow cytometry, OS cells. Format: cell-based, human. Particulars: 48 h, U-2 OS compared with ES cells. How it is done:
For the evaluation of cell cycle, cell cultures were incubated with 10 μmol/L bromodeoxyuridine (BrdU) (Sigma-Aldrich) for 1 h in a CO2 atmosphere at 37° C. Harvested cells were fixed in ice-cold 70% ethanol for 30 min. After DNA denaturation with 2 N HCl for 30 min at room temperature, cells were washed with 0.1 M Na2B4O7, pH 8.5 and processed for indirect immunofluorescence staining, using α-BrdU (BD Biosciences (San Jose, Calif.)) diluted 1:4 as a primary MAb and α-mouse FITC (1:100—Thermo Scientific (Waltham, Mass.)) as a secondary antibody. After treatment with 0.5 mg/ml RNase and staining with 20 μg/ml propidium iodide, cells were and analyzed by flow cytometry (FACSCalibur; Becton Dickinson (Franklin Lakes, N.J.)) for cell cycle evaluation and for assessing cell death by DNA content analysis.
In general terms: A flow cytometer gives signals particle by particle.

The target of test [3] is T1, CD99 protein (Homo sapiens, UniProt P14209).
T1 construct: The thermostability of endogenous CD99 protein increased in cell lysates from TC-71 cells; endogenous in cells; host or cells: TC-71 total cell lysate
T1 sequence (P14209 23-185): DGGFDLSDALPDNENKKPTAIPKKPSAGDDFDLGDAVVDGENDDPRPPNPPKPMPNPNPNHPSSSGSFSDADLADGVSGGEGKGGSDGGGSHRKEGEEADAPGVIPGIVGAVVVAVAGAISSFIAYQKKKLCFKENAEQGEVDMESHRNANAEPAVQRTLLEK
The test can be described thus: Cellular thermal shift assay (CETSA) in TC-71 cell lysates. Format: binding. The conditions noted are these: 3.0 μmol/L, 30 min, high temperatures vs control lysates. The method, then:
The CETSA method was used according to Martinez Molina et al. (“Monitoring drug target engagement in cells and tissues using the cellular thermal shift assay,” Science 341: 84-87 (2013)) and Jafari et al. (“The cellular thermal shift assay for evaluating drug target interactions in cells,” Nat Protoc 9:2100-22 (2014)). […] The cell lysates in 60 μL volumes were individually heated in thin wall PCR tubes to the indicated temperatures for 3 min, by using Veriti 96-well Thermal Cycler (Applied Biosystems (Foster City, Calif.)). Samples were then centrifuged at 16,000×g for 30 min at 4° C. to remove insoluble proteins, and 40 ul of the resulting supernatants were transferred into new eppendorf tubes for subsequent SDS-PAGE and immunoblotting analysis.

For test [4], the system named is ES cell lines RDES and TC-71. The test can be described thus: Secondary functional screen, growth inhibition in ES cell lines. It counts as cell-based. Particulars: Homo sapiens; 10 μmol/L, 48 h, WST-1.
In test [5] the test system is U-2 OS cells. The test can be described thus: Secondary functional screen, negative control cell line. Format: cell-based. Particulars: Homo sapiens, U2OS; 10 μmol/L, 48 h, WST-1; read-out: growth inhibition of OS cell lines (U-2 OS). (In general: Formazan colour is commonly taken as a measure of viable cells.)
Test [6] deals with A4573 ES cells. The experiment in a line: Cell viability IC50 (WST-1), A4573. It counts as cell-based, human. Particulars: Homo sapiens, WST-1, 48 h (FIG. 10B).
Test [7] concerns MG63.3 OS cells transfected with DCK siRNA. The test can be described thus: Response to clofarabine after DCK siRNA, OS cells. It counts as cell-based, human. The conditions noted are these: MG63.3, DCK siRNA.
Excerpt: (§3) The expression of DCK and CD99 was suppressed transiently by using a validated small interfering RNA (siRNA) duplexes targeting coding region (Invitrogen (Carlsbad, Calif.); #s186 and #s8768, respectively). Silencer™ Select Negative Control No. 2 siRNA (Invitrogen) was used as the control. Cells were transfected with DCK or CD99 or control siRNA oligonucleotides using X-tremeGene siRNA transfection reagent (Roche Diagnostics (Basel, Switzerland)) according to the manufacturer's protocol. The cells were analyzed for DCK and CD99 knockdown after 45 or 72 h by immunoblotting.
Test [8] deals with TC-32 ES cells transfected with DCK siRNA. The experiment in a line: Response to clofarabine after DCK siRNA, ES cells. It counts as cell-based, human. The conditions noted are these: TC-32, DCK siRNA.
Excerpt: as §3
Test [9] deals with TC-71 xenografts. The test can be described thus: Orthotopic TC-71 xenograft, oral administration. It counts as in vivo, SCID/beige mice. How it is done: All tumor tissues were fixed in 10% neutral buffered formalin for 24 h, dehydrated through a graded series of alcohols and cleared in xylenes prior to embedding in paraffin. Embedded tissues were cut into 5 μm thick sections and stained with hematoxylin and eosin (H&E). Immunohistochemical staining was performed for CD99 and caspase 3 (cleaved). Five micron sections from formalin fixed paraffin embedded tissues were de-paraffinized with xylenes and rehydrated through a graded alcohol series. Heat induced epitope retrieval was performed by immersing the tissue sections at 98° C. for 60 min in 10 mmol/L citrate buffer (pH 6.0). Immunohistochemical staining was performed using a horseradish peroxidase labeled polymer from Agilent (Santa Clara, Calif.) (#K4001, #K4003) according to manufacturer's instructions. Briefly, slides were treated with 3% hydrogen peroxide and 10% normal goat serum for 10 min each, and exposed to primary antibodies for CD99 (Abcam, #ab8855) at a 1:100 dilution and for caspase 3 (cleaved) (Biocare (Pacheco, Calif.), #CP229A) at a 1:90 dilution in Da Vinci Green for one hour and stained on an DAKO Autostainer. Slides were exposed to the appropriate HRP labeled polymer for 30 min and DAB chromogen (Dako (Santa Clara, Calif.) for 5 min. Slides were counterstained with Hematoxylin (Fisher, Harris Modified Hematoxylin), blued in 1% ammonium hydroxide, dehydrated, and mounted with Acrymount. Consecutive sections with the primary antibody omitted were used as negative controls. The sections were evaluated in a blinded fashion by a board certified pathologist.
In this study, reduction in number of mitotic figures and increase in caspase-3 staining was less prominent. […] Therefore, when the animals were euthanized for tumor regrowth they were not receiving any clofarabine. Their last dose of clofarabine was more than two week before the tissue harvest.

Test [10] deals with MSK1/2 phosphorylation in STA-ET-7.2 and TC-32 cells. The experiment in a line: MSK1/2 phosphorylation by immunoblot, ES cells. It counts as cell-based, human. Particulars: 0.6 μmol/L (STA-ET-7.2) or 0.5 μmol/L (TC-32), 24 h, vs vehicle. The method, then: (§1) In a parallel set of experiment, cells were also treated with 15 μg/mL of either mouse control IgM or CD99 blocking antibody for the same duration. Total cell lysates were analyzed by immunoblotting for MSK1/2 phosphorylation. […] In a parallel set of experiment, cells were transfected with either siRNA control or siRNA targeting the coding region of CD99 protein. Total cell lysates were analyzed after 48 h by immunoblotting for MSK1/2 phosphorylation after cell transfection. […] In FIG. 23D, SCID/beige mice were implanted with TC-71 xenografts in their tibia. […] Tumor lysates were analyzed by immunoblotting for MSK1/2 phosphorylation.
(§2) Quantitative analysis of protein bands was performed using ImageJ 1.48v software. Immunoblotting was performed as described above.
In general terms: A western blot detects proteins with antibodies after separation by electrophoresis.

Test [11] has as its system MSK1/2 phosphorylation in MG63.3 and U-2 OS cells. The experiment in a line: MSK1/2 phosphorylation by immunoblot, OS cells. The conditions noted are these: 1.0 μmol/L, 24 h. Format: cell-based, human. How it is done:
as §1, §2

Broadly, the inhibition is the drop in the measured response relative to a control, in per cent. As usually defined, the IC50 is the concentration that gives 50% inhibition. Read a low IC50 as greater potency.

In the case of `Nc1nc(Cl)nc2c1ncn2[C@H]1C[C@H](O)[C@@H](CO)O1` [cladribine], the “rescue of reduced cell proliferation induced by CD99 expression” value in test [1] is given as “rescued”. Moreover, the cell cycle effect entry in test [2] is listed as “more pronounced”.
In the case of `Nc1nc(Cl)nc2c1ncn2[C@@H]1O[C@H](CO)[C@@H](O)[C@@H]1F` [clofarabine], the “thermostability of endogenous CD99 protein” value in test [3] is given as “increased”. The inhibition at 10 µM is ≥ 70% in test [4] and ≤ 10% in test [5]. The compound further yielded a half-maximal inhibitory concentration (IC50) in test [6] of 310 nM. The “response after inhibiting DCK protein expression” value is recorded as “complete resistance” in test [7] and “shift to the right of the IC50 curve” in [8]. For the same compound, in [9] (TC-71 xenograft harvested after 2 days of 30 mg/kg oral), the mitotic figures entry is reported as “complete loss”. Also, the apoptotic cells entry in test [9] (TC-71 xenograft harvested after 2 days of 30 mg/kg oral, H&E, caspase-3) is listed as “significant increase”. Besides, the “phosphorylation levels of MSK1/2 in tumors” value in test [9] (TC-71 xenograft, oral 30 mg/kg for two days, three out of four mice) is recorded as “significant increase”. The tumor growth entry in [9] (TC-71 xenograft, 30 mg/kg orally once daily 14 days, compared to i.p. administration) was “more significant inhibition of tumor growth”. This compound also registered a median event-free survival in test [9] (TC-71 xenograft, 30 mg/kg orally once daily for 14 days, vehicle 7 days, p<0.0001) of 33 days. Also, the “phosphorylation levels of MSK1/2” value in [10] was “significantly elevated”; in [11], “Neither MG63.3 nor U2-OS cells showed a response”.

Source of the values: US11202792B2, “CD99 inhibitors and their uses” (GEORGETOWN UNIVERSITY, priority 2016, dated 2021).
